Measurements published in ChEMBL document CHEMBL1149245 (J Med Chem, 2004).
Calls of active or inactive are those of the source. The calls are words filed in the database; no cut-off is given here.

Assays:
[1] = target: T1, Alpha-2C adrenergic receptor (Homo sapiens, UniProt P18825); assay: Displacement of [3H]RX821002 from human adrenergic Alpha-2C receptor expressed in CHO cells; type: cell-based
T1 sequence (P18825 whole entry): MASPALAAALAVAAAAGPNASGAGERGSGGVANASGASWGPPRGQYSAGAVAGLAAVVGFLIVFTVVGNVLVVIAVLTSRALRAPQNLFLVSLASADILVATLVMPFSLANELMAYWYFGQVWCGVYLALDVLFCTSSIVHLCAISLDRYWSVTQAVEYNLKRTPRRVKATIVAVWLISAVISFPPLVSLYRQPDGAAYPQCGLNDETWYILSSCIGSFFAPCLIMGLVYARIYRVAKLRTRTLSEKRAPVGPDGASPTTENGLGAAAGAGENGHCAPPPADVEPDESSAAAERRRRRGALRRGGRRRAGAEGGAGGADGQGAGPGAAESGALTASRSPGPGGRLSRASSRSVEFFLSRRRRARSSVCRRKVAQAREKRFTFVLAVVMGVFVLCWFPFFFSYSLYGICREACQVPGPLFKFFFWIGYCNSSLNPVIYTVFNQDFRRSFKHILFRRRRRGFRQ

[2] = target: T2, Alpha-2A adrenergic receptor (Homo sapiens, UniProt P08913); assay: Displacement of [3H]RX821002 from human adrenergic alpha2A receptor expressed in CHO cells; type: cell-based
T2 sequence (P08913 whole entry): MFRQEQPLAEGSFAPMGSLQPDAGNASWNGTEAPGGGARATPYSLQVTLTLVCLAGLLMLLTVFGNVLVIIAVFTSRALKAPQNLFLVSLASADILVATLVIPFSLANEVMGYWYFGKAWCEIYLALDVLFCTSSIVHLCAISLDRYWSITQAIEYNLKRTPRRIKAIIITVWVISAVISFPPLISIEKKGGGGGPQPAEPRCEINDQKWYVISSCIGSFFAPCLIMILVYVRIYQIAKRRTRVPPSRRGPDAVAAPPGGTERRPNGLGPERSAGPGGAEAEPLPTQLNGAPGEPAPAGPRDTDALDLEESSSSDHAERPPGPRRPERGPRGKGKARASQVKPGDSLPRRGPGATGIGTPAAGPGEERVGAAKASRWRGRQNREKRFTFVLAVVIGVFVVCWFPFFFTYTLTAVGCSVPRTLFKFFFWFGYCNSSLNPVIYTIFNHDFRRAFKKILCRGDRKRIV

[3] = target: T3, Alpha-2B adrenergic receptor (Homo sapiens, UniProt P18089); assay: Displacement of [3H]RX821002 from human adrenergic alpha-2B receptor expressed in CHO cells; type: cell-based
T3 sequence (P18089 whole entry): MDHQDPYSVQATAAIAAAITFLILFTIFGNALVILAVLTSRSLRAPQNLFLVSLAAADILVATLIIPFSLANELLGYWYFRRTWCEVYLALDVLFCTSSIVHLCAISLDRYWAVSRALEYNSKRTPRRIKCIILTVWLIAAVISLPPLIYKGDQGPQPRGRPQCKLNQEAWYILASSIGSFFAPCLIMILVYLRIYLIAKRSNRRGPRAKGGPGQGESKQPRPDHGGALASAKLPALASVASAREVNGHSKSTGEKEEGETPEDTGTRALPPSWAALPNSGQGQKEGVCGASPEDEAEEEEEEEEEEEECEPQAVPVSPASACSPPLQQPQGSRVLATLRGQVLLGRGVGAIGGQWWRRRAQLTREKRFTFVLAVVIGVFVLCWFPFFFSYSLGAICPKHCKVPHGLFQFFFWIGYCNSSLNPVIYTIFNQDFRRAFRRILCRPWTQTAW

[4] = target: T1, Alpha-2C adrenergic receptor; type: functional, cell-based, CHO
Description: Agonist activity at human adrenergic alpha-2C receptor expressed in CHO cells assessed as extracellular acidification by cytosensor microphysiometry

[5] = target: T2, Alpha-2A adrenergic receptor; type: functional, cell-based, CHO
Description: Agonist activity at human adrenergic alpha-2A receptor expressed in CHO cells assessed as extracellular acidification by cytosensor microphysiometry

[6] = target: T3, Alpha-2B adrenergic receptor; assay: Agonist activity at human adrenergic alpha-2B receptor expressed in CHO cells assessed as extracellular acidification by cytosensor microphysiometry; type: functional, cell-based
[7] = target: T4, Alpha-2C adrenergic receptor (Homo sapiens) (UniProt P18825); assay: (§1) Agonist activity at human adrenergic Alpha-2C receptor expressed in CHO cells assessed as inhibition of forskolin-induced cAMP accumulation; type: functional, cell-based
T4 sequence (whole entry): T1 sequence (P18825 whole entry)

[8] = target: T1, Alpha-2C adrenergic receptor; assay: as §1; type: functional, cell-based
[9] = target: T2, Alpha-2A adrenergic receptor; assay: (§2) Agonist activity at human adrenergic alpha-2A receptor expressed in CHO cells assessed as inhibition of forskolin-induced cAMP accumulation; type: functional, cell-based
[10] = target: T5, Alpha-2A adrenergic receptor (Homo sapiens) (UniProt P08913); assay: as §2; type: functional, cell-based
T5 sequence (whole entry): T2 sequence (P08913 whole entry)

[11] = target: Nischarin (Homo sapiens, UniProt Q9Y2I1); assay: Binding affinity to imidazoline receptor 1
Sequence of Nischarin (Q9Y2I1 whole entry): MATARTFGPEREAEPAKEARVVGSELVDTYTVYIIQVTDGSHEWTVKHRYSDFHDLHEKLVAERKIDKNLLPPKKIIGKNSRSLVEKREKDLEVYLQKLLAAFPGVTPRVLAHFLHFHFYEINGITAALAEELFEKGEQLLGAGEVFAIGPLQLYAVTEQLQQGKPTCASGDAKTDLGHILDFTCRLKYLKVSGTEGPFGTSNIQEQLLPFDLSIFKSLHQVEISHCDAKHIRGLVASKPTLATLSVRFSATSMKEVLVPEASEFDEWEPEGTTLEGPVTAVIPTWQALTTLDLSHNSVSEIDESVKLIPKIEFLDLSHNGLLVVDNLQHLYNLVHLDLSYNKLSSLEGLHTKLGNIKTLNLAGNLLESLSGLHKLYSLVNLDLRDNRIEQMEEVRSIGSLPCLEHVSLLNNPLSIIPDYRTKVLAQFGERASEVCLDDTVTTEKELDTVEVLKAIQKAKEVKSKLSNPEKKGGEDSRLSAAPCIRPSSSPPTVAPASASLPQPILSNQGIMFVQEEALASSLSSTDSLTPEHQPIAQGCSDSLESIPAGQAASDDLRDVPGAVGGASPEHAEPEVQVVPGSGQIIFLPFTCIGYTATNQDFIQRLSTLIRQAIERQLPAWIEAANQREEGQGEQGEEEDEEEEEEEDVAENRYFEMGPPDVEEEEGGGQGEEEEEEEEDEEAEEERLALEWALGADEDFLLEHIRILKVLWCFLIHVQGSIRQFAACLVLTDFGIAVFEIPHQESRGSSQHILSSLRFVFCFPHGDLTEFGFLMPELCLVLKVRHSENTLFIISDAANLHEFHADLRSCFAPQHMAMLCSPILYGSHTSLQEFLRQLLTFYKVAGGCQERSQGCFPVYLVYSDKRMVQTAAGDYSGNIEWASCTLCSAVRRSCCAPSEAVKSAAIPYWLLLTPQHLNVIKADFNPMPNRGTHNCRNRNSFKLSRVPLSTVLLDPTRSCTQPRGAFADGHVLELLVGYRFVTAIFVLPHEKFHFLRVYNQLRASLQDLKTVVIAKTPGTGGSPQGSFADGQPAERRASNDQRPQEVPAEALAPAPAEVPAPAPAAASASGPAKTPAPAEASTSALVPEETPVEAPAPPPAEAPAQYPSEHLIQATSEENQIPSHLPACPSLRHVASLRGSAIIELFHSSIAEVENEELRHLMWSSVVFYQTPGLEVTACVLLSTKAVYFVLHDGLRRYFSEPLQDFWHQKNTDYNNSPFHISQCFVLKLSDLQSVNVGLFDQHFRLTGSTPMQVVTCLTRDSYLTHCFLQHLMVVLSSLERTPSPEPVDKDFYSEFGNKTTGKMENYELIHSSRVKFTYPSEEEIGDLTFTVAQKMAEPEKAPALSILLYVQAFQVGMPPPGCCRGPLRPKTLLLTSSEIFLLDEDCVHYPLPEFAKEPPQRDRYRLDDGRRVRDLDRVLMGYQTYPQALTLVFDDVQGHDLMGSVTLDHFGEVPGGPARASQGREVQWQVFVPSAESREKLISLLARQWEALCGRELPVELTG

Molecule `Cc1ccc(-c2ccccc2OC(C)C2=NCCN2)cc1` (stereo unspecified) has a Ki [1] of 0.251 µM, a Ki [2] of 0.0417 µM and a Ki [3] of 0.398 µM. It also gave an EC50 [4] of 0.832 µM.

`CC(Oc1ccccc1-c1ccccc1[N+](=O)[O-])C1=NCCN1` (stereo unspecified) showed a Ki [1] of 1.23 µM, a Ki [2] of 0.174 µM and a Ki [3] of 1.55 µM.

In the case of `CC(Oc1ccccc1-c1cccc(N)c1)C1=NCCN1` (stereo unspecified), the Ki [1] is reported as 0.309 µM, the Ki [2] is reported as 0.0372 µM and the EC50 [5] is reported as 0.257 µM. The Ki [3] was 0.479 µM and the EC50 [4] was 0.501 µM.

In the case of `CC(Oc1ccccc1-c1ccncc1)C1=NCCN1` (stereo unspecified), the Ki [1] is reported as 1.45 µM, the Ki [2] is reported as 0.282 µM and the Ki [3] is reported as 2.69 µM.

In the case of `c1ccc(-c2ccccc2C2OC2C2=NCCN2)cc1` (cis isomer), the Ki [1] is reported as 6.46 µM, the Ki [2] is reported as 1.23 µM and the EC50 [5] is reported as 3.47 µM. For the same molecule, the Ki [3] was 20 µM and the EC50 [4] was 2.69 µM.

`CC(Oc1ccccc1-c1cccc(O)c1)C1=NCCN1` (stereo unspecified) was tested, and the EC50 [6] was 5.25 µM, the Ki [1] was 0.0178 µM and the Ki [2] was 0.0275 µM. For the same molecule, the Ki [3] was 0.355 µM and the EC50 [4] was 0.0468 µM.

With `CC(Nc1ccccc1-c1ccccc1)C1=NCCN1` (stereo unspecified) the EC50 [6] was 3.8 µM, the Ki [1] was 0.708 µM and the Ki [2] was 0.0912 µM. The EC50 [5] was 0.389 µM, the Ki [3] was 1.15 µM and the EC50 [4] was 0.0933 µM.

With `CC(Oc1ccccc1-c1ccccc1)C1=NCCS1` (stereo unspecified) the Ki [1] was > 10 µM, the Ki [2] was > 10 µM and the Ki [3] was > 10 µM.

`CC(Oc1ccccc1-c1ccccn1)C1=NCCN1` (stereo unspecified) was tested, and the Ki [1] was 1.26 µM, the Ki [2] was 1.2 µM and the Ki [3] was 3.31 µM.

Molecule `CC(Oc1ccccc1-c1ccc(O)cc1)C1=NCCN1` (stereo unspecified) has a Ki [1] of 0.331 µM, a Ki [2] of 0.0339 µM and a Ki [3] of 0.813 µM.

Work on `CC(Oc1ccccc1-c1ccccc1O)C1=NCCN1` (stereo unspecified) yielded a Ki [1] of 1.62 µM, a Ki [2] of 0.309 µM and a Ki [3] of 1 µM.

`CC(Sc1ccccc1-c1ccccc1)C1=NCCN1` (stereo unspecified) gave a Ki [1] of 0.708 µM, a Ki [2] of 0.339 µM and a Ki [3] of 3.55 µM.

With `CC(Oc1ccccc1-c1cccs1)C1=NCCN1` (stereo unspecified) the EC50 [6] was 1 µM, the Ki [1] was 0.0724 µM and the Ki [2] was 0.017 µM. The EC50 [5] was 0.0417 µM, the Ki [3] was 0.214 µM and the EC50 [4] was 0.0589 µM.

`c1ccc(-c2ccccc2C2OC2C2=NCCN2)cc1` (stereo unspecified) was tested, and the Ki [1] was 4.27 µM, the Ki [2] was 1.51 µM and the Ki [3] was 1.23 µM.

`CC(Oc1ccccc1-c1ccsc1)C1=NCCN1` (stereo unspecified) gave a Ki [1] of 0.132 µM, a Ki [2] of 0.0457 µM and an EC50 [5] of 0.0759 µM. It also gave a Ki [3] of 0.417 µM and an EC50 [4] of 0.0933 µM.

Work on `CC(Oc1ccccc1-c1cccnc1)C1=NCCN1` (stereo unspecified) yielded an EC50 [6] of 1 µM, a Ki [1] of 0.0646 µM and an Intrinsic activity [7] of 1. For the same molecule, the EC50 [8] was 0.0398 µM, the Ki [2] was 0.138 µM and the EC50 [5] was 0.316 µM. The Ki [3] was 0.933 µM, the EC50 [4] was 0.0501 µM and the EC50 [9] was 0.589 µM. For the same molecule, the Intrinsic activity [10] was 0.5.

In the case of `CC(Oc1ccccc1-c1ccccc1)C1=NCCC1` (stereo unspecified), the Ki [1] is reported as 5.89 µM, the Ki [2] is reported as 8.13 µM and the Ki [3] is reported as 10 µM.

`Cc1cccc(-c2ccccc2OC(C)C2=NCCN2)c1` (stereo unspecified) was tested, and the Ki [1] was 0.245 µM, the Ki [2] was 0.0513 µM and the Ki [3] was 0.537 µM. The EC50 [4] was 1.58 µM.

`CC(Oc1ccccc1-c1ccccc1)C1=NCCN1` (stereo unspecified) [BIPHENYLINE] was tested, and the EC50 [6] was 0.646 µM, the Ki [11] was 0.126 µM and the Ki [1] was 0.2 µM. The Ki [2] was 0.0479 µM, the EC50 [5] was 0.115 µM and the Ki [3] was 0.501 µM. It also gave an EC50 [4] of 0.0575 µM.

`CC(Oc1ccccc1-c1ccccc1)C1=NCCO1` (stereo unspecified) showed a Ki [1] of 5.89 µM, a Ki [2] of 8.13 µM and a Ki [3] of 10 µM.

`Cc1ccccc1-c1ccccc1OC(C)C1=NCCN1` (stereo unspecified) showed a Ki [1] of 0.234 µM, a Ki [2] of 0.0468 µM and a Ki [3] of 0.832 µM. For the same molecule, the EC50 [4] was 0.363 µM.

`CC(Oc1ccccc1-c1cccc([N+](=O)[O-])c1)C1=NCCN1` (stereo unspecified) gave a Ki [1] of 0.234 µM, an Intrinsic activity [7] of 0.6 and an EC50 [8] of 0.158 µM. It also gave a Ki [2] of 0.0603 µM, a Ki [3] of 0.661 µM and an EC50 [4] of 0.1 µM. The Activity [10] was “inactive”.

In the case of `CC(Oc1ccccc1-c1cccc(F)c1)C1=NCCN1` (stereo unspecified), the Ki [1] is reported as 0.017 µM, the Ki [2] is reported as 0.0148 µM and the EC50 [5] is reported as 0.105 µM. For the same molecule, the Ki [3] was 0.269 µM and the EC50 [4] was 0.0603 µM.

`CC(Oc1ccccc1-c1ccc([N+](=O)[O-])cc1)C1=NCCN1` (stereo unspecified) was tested, and the Ki [1] was 0.302 µM, the Ki [2] was 0.123 µM and the Ki [3] was 0.501 µM.
